Measurements taken from US10344019B2 (priority 2010, dated 2019).

Experiments:
Assay type in all cases: cell-based
[1] = system: HCV 2b Rluc cells (NS5A chimeric genotype 2a JFH-1 replicon with genotype 2b MD2b-1 NS5A gene, M31 present); assay: microbe, parasite or virus in culture; conditions: Hepatitis C virus, read-out: 2b
Procedure, shortened: (§1)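 Replicon cells stably carrying the listed RLuc-encoding dicistronic replicons were seeded and treated with DMSO serial dilutions of compound (10 mM stocks) diluted into culture medium. After 72 h, cells were lysed and Renilla luciferase activity measured. EC50 was derived by non-linear regression.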

[2] = system: HCV 1a RLuc cells (dicistronic genotype 1a H77 replicon, RLuc reporter); assay: microbe, parasite or virus in culture; conditions: Hepatitis C virus, genotype 1a H77 RLuc replicon; read-out: 1a
Procedure, shortened: (§2)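 Replicons used: genotype 1b Con1, 1a H77, 2a JFH-1, and a 2a JFH-1 chimera with J6-strain NS5A (M31 present), all dicistronic.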

[3] = system: HCV 1b RLuc cells (dicistronic genotype 1b Con1 replicon, RLuc reporter); assay: microbe, parasite or virus in culture; conditions: Hepatitis C virus, read-out: 1b (nM)
Procedure, shortened: as §2

[4] = system: HCV 2a JFH-1 Rluc cells (dicistronic genotype 2a JFH-1 replicon, RLuc reporter); assay: microbe, parasite or virus in culture; conditions: Hepatitis C virus, genotype 2a JFH-1 RLuc replicon; read-out: 2a JFH
Procedure, shortened: as §2

[5] = system: HCV 2a Rluc cells (NS5A chimeric genotype 2a JFH-1 replicon with genotype 2a J6 strain NS5A gene, M31 present); assay: HCV replicon reporter assay, genotype 2a J6 (M31 present); conditions: Hepatitis C virus, read-out: 2a J6
Procedure, shortened: as §2

[6] = system: Q30R in genotype 1a NS5A, 1a Rluc replicon transfected into Huh-7 cured-51 cells; assay: HCV replicon assay, resistance mutant 1a Q30R; conditions: Hepatitis C virus, Huh-7, read-out: 1a Q30R
Method: Evaluation of cell-based anti-HCV activity: Antiviral potency (EC50) was determined using a Renilla luciferase (RLuc)-based HCV replicon reporter assay. To perform the assay for genotype 1 and 2a JFH-1, HCV 1b RLuc cells (harboring a dicistronic genotype 1b Con1 replicon that encodes a RLuc reporter), or HCV 1a RLuc cells (harboring a dicistronic genotype 1a H77 replicon that encodes a RLuc reporter), or HCV 2a JFH-1 Rluc cells (harboring a dicistronic genotype 2a JFH-1 replicon that encodes a RLuc reporter) were dispensed into 384-well plates. To perform the assay for genotype 2a (with M31 present) or 2b, HCV 2a Rluc or 2b Rluc cells (both with M31 present) harboring a dicistronic NS5A chimeric genotype 2a JFH-1 replicon that encodes a RLuc reporter and either genotype 2a J6 strain NS5A gene or genotype 2b MD2b-1 NS5A gene (based on Los Alamos HCV database isolates, both with M31 present) respectively, were dispensed into 384-well plates. To perform the assay for genotype 3 and 4, HCV 3a RLuc or 4a Rluc cells harboring a dicistronic NS5A chimeric genotype 1b Con1 replicon that encodes a RLuc reporter and either a consensus genotype 3a NS5A gene or genotype 4a NS5A gene (based on Los Alamos HCV database isolates) respectively, were dispensed into 384-well plates. Compounds were re-suspended in DMSO at a concentration of 10 mM and serially diluted in DMSO either manually or using an automated pipeting instrument. Serially diluted compounds were mixed with cell culture media and added to the seeded cells. […] 72 hours later, cells were lysed and Renilla luciferase activity quantified as recommended by the manufacturer (Promega-Madison, Wis.). Non-linear regression was performed to calculate EC50 values.
To determine the antiviral potency (EC50) against resistance mutants, resistance mutations, including M28T, Q30R, Q30H, L31M, and Y93C in genotype 1a NS5A and Y93H in genotype 1b NS5A, were introduced individually into either 1a Rluc or 1b Rluc replicons described above by site directed mutagenesis. Replicon RNA of each resistant mutant was transfected into Huh-7 cured-51 cells and antiviral potency was determined on these transfected cells as described above.

[7] = system: HCV 3a RLuc cells (NS5A chimeric genotype 1b Con1 replicon with consensus genotype 3a NS5A gene); assay: microbe, parasite or virus in culture; conditions: Hepatitis C virus, read-out: 3a, genotype 3a NS5A chimeric replicon
Procedure, shortened: as §1

Row | Compound | EC50 [1] [nM] | EC50 [2] [nM] | EC50 [3] [nM] | EC50 [4] [nM] | EC50 [5] [nM] | EC50 [6] [nM] | EC50 [7] [nM]
1 | COC[C@H]1C[C@@H](c2ncc(-c3ccc4c(c3)COc3cc5c(ccc6nc([C@@H]7CC[C@H](C)N7C(=O)[C@@H](NC(=O)OC)C(C)C)[nH]c65)cc3-4)[nH]2)N(C(=O)[C@@H](NC(=O)OC)C(C)C)C1 [Example 600] | 0.001 to 0.999 | 0.001 to 0.999 | 0.007 | 0.001 to 0.999 | 0.001 to 0.999 | 0.001 to 0.999 | 
2 | COC[C@H]1C[C@@H](c2ncc(-c3ccc4c(c3)COc3cc5c(ccc6nc([C@@H]7C[C@H]8CC8N7C(=O)[C@H](NC(=O)OC)c7ccccc7)[nH]c65)cc3-4)[nH]2)N(C(=O)[C@@H](NC(=O)OC)C(C)C)C1 (some centres unmarked) [Example 601] | 0.001 to 0.999 | 0.001 to 0.999 | 0.014 | 0.001 to 0.999 | 0.001 to 0.999 | 0.001 to 0.999 | 0.001 to 0.99
3 | COC(=O)N[C@H](C(=O)N1[C@@H](C)CC[C@H]1c1ncc(-c2ccc3c(c2)COc2cc4c(ccc5nc([C@@H]6CCCN6C(=O)[C@@H](NC(=O)OC)[C@@H](C)OC)[nH]c54)cc2-3)[nH]1)C(C)C [Example 603] | 0.001 to 0.999 | 0.001 to 0.999 |  | 0.001 to 0.999 | 0.001 to 0.999 | 0.001 to 0.999 | 0.001 to 0.99
4 | COC(=O)N[C@H](C(=O)N1[C@@H](C)CC[C@H]1c1ncc(-c2ccc3c(c2)COc2cc4c(ccc5nc([C@@H]6CCCN6C(=O)[C@H](NC(=O)OC)c6ccccc6)[nH]c54)cc2-3)[nH]1)C(C)C [Example 605] | 0.001 to 0.999 | 0.001 to 0.999 | 0.015 | 0.001 to 0.999 | 0.001 to 0.999 | 0.001 to 0.999 | 0.001 to 0.99
5 | COC[C@H]1C[C@@H](c2ncc(-c3ccc4c(c3)COc3cc5c(cc3-4)CCc3nc([C@@H]4CC[C@H](C)N4C(=O)[C@@H](NC(=O)OC)C(C)C)[nH]c3-5)[nH]2)N(C(=O)[C@H](NC(=O)OC)c2ccccc2)C1 [Example 608] | 0.001 to 0.999 | 0.001 to 0.999 | 0.017 | 0.001 to 0.999 | 0.001 to 0.999 | 0.001 to 0.999 | 
6 | COC(=O)N[C@H](C(=O)N1[C@@H](C)CC[C@H]1c1nc2ccc3cc4c(cc3c2[nH]1)OCc1cc(-c2cnc([C@@H]3C[C@H](C)CN3C(=O)[C@@H](NC(=O)OC)[C@@H](C)OC)[nH]2)ccc1-4)C(C)C [Example 612] | 0.001 to 0.999 | 0.001 to 0.999 |  | 0.001 to 0.999 | 0.001 to 0.999 | 0.001 to 0.999 | 0.001 to 0.99
7 | COC(=O)N[C@H](C(=O)N1C[C@@H](C)C[C@H]1c1ncc(-c2ccc3c(c2)COc2cc4c(ccc5nc([C@@H]6CC[C@H](C)N6C(=O)[C@@H](NC(=O)OC)C(C)C)[nH]c54)cc2-3)[nH]1)C(C)C [Example 613] | 0.001 to 0.999 | 0.001 to 0.999 |  | 0.001 to 0.999 | 0.001 to 0.999 | 0.001 to 0.999 | 0.001 to 0.99
8 | COC[C@H]1C[C@@H](c2nc3c([nH]2)-c2cc4c(cc2CC3)-c2ccc(-c3cnc([C@@H]5CC[C@H](C)N5C(=O)[C@@H](NC(=O)OC)C(C)C)[nH]3)cc2CO4)N(C(=O)[C@H](NC(=O)OC)c2ccccc2)C1 [Example 614] | 0.001 to 0.999 | 0.001 to 0.999 |  | 0.001 to 0.999 | 0.001 to 0.999 | 0.001 to 0.999 | 0.001 to 0.99
9 | CC[C@H](C)[C@H](NC(=O)OC)C(=O)N1[C@@H](C)CC[C@H]1c1ncc(-c2ccc3c(c2)COc2cc4c(ccc5nc([C@@H]6C[C@H](COC)CN6C(=O)[C@H](NC(=O)OC)c6ccccc6)[nH]c54)cc2-3)[nH]1 [Example 637] | 0.001 to 0.999 | 0.001 to 0.999 |  | 0.001 to 0.999 | 0.001 to 0.999 | 0.001 to 0.999 | 0.001 to 0.99
